Reference: US6033823A, “Mutated penicillin G acylase genes” (priority 1994, dated 2000)
Positions count from the first letter of the chain named.

Experiments:
[1] = target: T1, Alcaligenes faecalis Penicillin G acylase mutant B:L56V (Alcaligenes faecalis, UniProt O34142, L321V); assay: NIPAB kinetics and phenylacetic acid product inhibition, mutant B:L56V; assay type: biochemical; details: from progress curves of NIPAB deacylation, 25° C., 0.1 M NaH2PO4.H2O buffer pH 7.5, read-out: Ki Phenylacetic acid (inhibition constant, dissociation constant)
T1 construct: alpha 202 aa, beta 551 aa; recombinant, E. coli host
T1 sequence (O34142 27-228): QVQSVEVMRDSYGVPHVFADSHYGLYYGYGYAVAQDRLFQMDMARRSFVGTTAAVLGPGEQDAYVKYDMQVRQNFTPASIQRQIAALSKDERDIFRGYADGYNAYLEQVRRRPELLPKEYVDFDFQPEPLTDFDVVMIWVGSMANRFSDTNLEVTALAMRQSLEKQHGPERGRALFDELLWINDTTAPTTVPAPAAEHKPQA
T1 sequence (O34142 266-816 L321V): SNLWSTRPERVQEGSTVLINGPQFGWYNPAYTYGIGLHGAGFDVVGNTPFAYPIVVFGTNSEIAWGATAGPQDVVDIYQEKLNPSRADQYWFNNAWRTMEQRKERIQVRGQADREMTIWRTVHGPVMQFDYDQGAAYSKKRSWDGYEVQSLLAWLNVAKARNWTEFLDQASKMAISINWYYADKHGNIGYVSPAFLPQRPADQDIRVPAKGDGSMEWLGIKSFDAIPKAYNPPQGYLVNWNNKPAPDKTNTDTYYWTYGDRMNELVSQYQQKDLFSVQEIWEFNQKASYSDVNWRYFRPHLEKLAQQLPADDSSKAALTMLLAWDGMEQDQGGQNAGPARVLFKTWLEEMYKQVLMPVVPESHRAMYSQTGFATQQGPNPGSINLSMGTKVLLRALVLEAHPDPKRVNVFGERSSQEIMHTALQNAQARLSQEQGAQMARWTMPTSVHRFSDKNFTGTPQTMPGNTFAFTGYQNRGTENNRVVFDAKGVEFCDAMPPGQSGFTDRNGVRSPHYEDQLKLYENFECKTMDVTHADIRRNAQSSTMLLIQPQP
Protocol: (§1) In a continuous assay Penicillin G acylase was assayed spectro-fotometrically with the chromogenic substrate NIPAB [6-nitro-3-phenylacetamido-benzoic acid]. The liberation of 3-amino-6-nitrobenzoic acid was monitored by measuring the extinction at 405 nm in a Kontron 610 kinetic spectrofotometer. Measuring maximal rate, the assays were performed at 25° C. using 20 mM NaH2 PO4.H2 O at pH 7.5 with 20 mM NIPAB and 100 μl enzym solution (at a proper dilution). Initial rate measurements were performed with varying concentration of NIPAB.
(§2) Initial rate measurements were performed with excess substrate over the enzyme. Catalytic parameters were derived from least-squares fitting of the measured initial rates plotted for various substrate concentrations according to the Michaelis-Menten equation.
(§3) The complete conversion of NIPAB was followed as a funtion of time at 20, 50 and 100 μM NIPAB by following the increase in absorbtion at 405 nm. Products of this conversion are phenylacetic acid and 3-amino-6-nitrobenzoic acid. The conversion was performed at 25° C. in 0.1 M NaH2 PO4.H2 O buffer pH 7.5. The progress curves of the deacylation of NIPAB could be fitted very well when product inhibition by phenylacetic acid was taken into account. […]

[2] = target: T2, Alcaligenes faecalis Penicillin G acylase mutant B:I177S (Alcaligenes faecalis, UniProt O34142, I442S); assay: NIPAB kinetics and phenylacetic acid product inhibition, mutant B:I177S; assay type: biochemical; details: from progress curves of NIPAB deacylation, 25° C., 0.1 M NaH2PO4.H2O buffer pH 7.5, read-out: Ki Phenylacetic acid (inhibition constant, dissociation constant)
T2 construct: alpha 202 aa, beta 551 aa; recombinant, E. coli host
T2 sequence (O34142 27-228): T1 sequence (O34142 27-228)
T2 sequence (O34142 266-816 I442S): T1 sequence (O34142 266-816 L321V) with V56L, I177S
Protocol: as §1, §2, §3

For O=C(O)Cc1ccccc1 [phenylacetic acid], the Ki [1] was 31 µM and the Ki [2] was 252 µM.
